Source: PubChem BioAssay AID2060507 (Molecular Pharmacology Branch, DTP, NCI, 2025)

Tested on: 519858-162-T-J1-PDC complex spheroid viability
Experiment: Anticancer human tumor 519858-162-T-J1-PDC patient-derived colon adenocarcinoma cell line growth inhibition [GQUAD]
Details: for IC50: curve of first compound; for viability, T/C: stronger effect = lower value; active = viability on the fitted dose curve at most 10% of control; inactive = the rest
From the text: DNA G-quadruplex Stabilizer Agents in Combinations in Complex Spheroids
A high-throughput screen of multi-cell type tumor spheroids was designed to identify active combinations of DNA G-quadruplex stabilizer agents and targeted small molecules. Complex spheroids include a stromal component modeled by human endothelial cells (HUVEC) and fibroblasts modeled by human mesenchymal stem cells (MSCs). The concentration ranges selected for each drug and investigational agent were based upon clinically achievable concentrations if the clinical Cmax of the agent was known.
Compounds. The drugs and investigational agents: pidnarulex (CX-5461; NSC782164), APTO-253 (NSC789042), BRACO-19 (NSC847499), peposertib (NSC802822), ceralasertib (NSC780249), elimusertib (NSC800525), camonsertib (NSC841442), AZD-1390 (NSC803789), olaparib (NSC753686), talazoparib (NSC767125), ART-558 (NSC835418), sotorasib (NSC818433), MRTX-1133 (NSC836407), SN-38 (NSC673596), topotecan (NSC609699), etoposide (NSC141540), doxorubicin (NSC123127), gemcitabine (NSC613327), 5-fluorouracil (NSC19893), paclitaxel (NSC125973), vemurafenib (NSC761431), panobinostat (NSC761190), R-306465 (JNJ-16241199; NSC773264), adavosertib (NSC754352), TP-3654 (NSC805149), carboplatin (NSC241240), KSQ-4279 (NSC840948), and staurosporine (NSC755774) were obtained from the National Cancer Institute (NCI) Developmental Therapeutics Program Chemical Repository (34). The FDA-approved anticancer drug set is available from the NCI Developmental Therapeutics Program. […] The stock solutions were prepared in dimethyl sulfoxide (DMSO, Sigma-Aldrich, St. Louis, MO, cat. D2650) at 800-fold the tested concentration and stored at -70 degrees C prior to their use. All drugs and investigational agents were tested over a range starting from a high concentration at or near the clinical Cmax and decreasing in half-log increments. If the clinical Cmax for an agent had not been determined, the highest concentration tested was 10 microM.
2.3 Cell Culture. All cells were maintained in an incubator at 37 degrees C and 5% CO2 with 95% humidity. The PDC lines were cultured according to standard operating procedures established by the NCI PDMR. All PDCs were thawed and cultured in Matrigel-coated flasks prepared with a working solution of 1X Ham's F-12 nutrient mix, without supplementation (Invitrogen, cat. 11765054), 100 U/mL penicillin-streptomycin (Invitrogen, cat. 15140122), and 2.5% Matrigel (Corning Inc., cat. 354248) for the first three passages. The 857933-349-R-J2-PDC line was cultured in 6C/Colon 1B media, which includes advanced DMEM/F-12 (Thermo Fisher Scientific, cat. 12634028), 10 mM HEPES (Thermo Fisher Scientific, cat. 15630080), 1X GlutaMAX supplement (Thermo Fisher Scientific, cat. 35050061), 0.1 mg/mL primocin (InvivoGen, cat. ant-pm-2), 10% defined fetal bovine serum, heat inactivated (HyClone Laboratories Inc., cat. SH30070.03HI), 50% L-WRN conditioned media (ATCC, cat. CRL-3276), 1.25 mM N-Acetyl-L-cysteine (Sigma-Aldrich, cat. A9165), 10 mM nicotinamide (Sigma-Aldrich, cat. N0636), 1X B-27 supplement (Thermo Fisher Scientific, cat. 17504044), 1X N-2 supplement (Thermo Fisher Scientific, cat. 17502048), 10 microM Y-27632 dihydrochloride (Tocris Bioscience, cat. 1254), and 50 ng/mL human EGF recombinant protein (Thermo Fisher Scientific, cat. PHG0311). The 485176-168-R4-J1-PDC line was cultured in Panc media, which includes all 6C/Colon 1B media components plus 100 ng/mL human FGF-10 (Thermo Fisher Scientific, cat. 100-26), 500 nM SB-431542 (Selleckchem, cat. S1067), and gastrin (Tocris, cat. 3006).
[…]

[1] = second compound 0.0316 µM, first compound 0.0316 µM
[2] = second compound 0.0316 µM, first compound 0.1 µM
[3] = second compound 0.0316 µM, first compound 0.316 µM
[4] = second compound 0.0316 µM, first compound 1 µM
[5] = second compound 0.0316 µM, first compound 3.16 µM
[6] = second compound 0.0316 µM, first compound 10 µM
[7] = second compound 0.1 µM, first compound 0.0316 µM
[8] = second compound 0.1 µM, first compound 0.1 µM
[9] = second compound 0.1 µM, first compound 0.316 µM
[10] = second compound 0.1 µM, first compound 1 µM
[11] = second compound 0.1 µM, first compound 3.16 µM
[12] = second compound 0.1 µM, first compound 10 µM
[13] = second compound 0.316 µM, first compound 0.0316 µM
[14] = second compound 0.316 µM, first compound 0.1 µM
[15] = second compound 0.316 µM, first compound 0.316 µM
[16] = second compound 0.316 µM, first compound 1 µM
[17] = second compound 0.316 µM, first compound 3.16 µM
[18] = second compound 0.316 µM, first compound 10 µM
[19] = second compound 1 µM, first compound 0.0316 µM
[20] = second compound 1 µM, first compound 0.1 µM
[21] = second compound 1 µM, first compound 0.316 µM
[22] = second compound 1 µM, first compound 1 µM
[23] = second compound 1 µM, first compound 3.16 µM
[24] = second compound 1 µM, first compound 10 µM
[25] = second compound 3.16 µM, first compound 0.0316 µM
[26] = second compound 3.16 µM, first compound 0.1 µM
[27] = second compound 3.16 µM, first compound 0.316 µM
[28] = second compound 3.16 µM, first compound 1 µM
[29] = second compound 3.16 µM, first compound 3.16 µM
[30] = second compound 3.16 µM, first compound 10 µM
[31] = second compound 10 µM, first compound 0.0316 µM
[32] = second compound 10 µM, first compound 0.1 µM
[33] = second compound 10 µM, first compound 0.316 µM
[34] = second compound 10 µM, first compound 1 µM
[35] = second compound 10 µM, first compound 3.16 µM
[36] = second compound 10 µM, first compound 10 µM
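Note: spheroids exposed to compounds for 7 days.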

C#Cc1c(F)ccc2cc(O)cc(-c3ncc4c(N5CC6CCC(C5)N6)nc(OCC56CCCN5CC(F)C6)nc4c3F)c12 (stereo unspecified) + Cc1[nH]c2ccc(F)cc2c1-c1nc2c3cccnc3c3ncccc3c2[nH]1
inactive: viability, T/C [1] 103% | viability, T/C [2] 82.9% | viability, T/C [3] 92% | viability, T/C [4] 113% | viability, T/C [5] 72.3% | viability, T/C [6] 73.2% | viability, T/C [7] 111% | viability, T/C [8] 85.9% | viability, T/C [9] 126% | viability, T/C [10] 83.9% | viability, T/C [11] 68.3% | viability, T/C [12] 73% | viability, T/C [13] 104% | viability, T/C [14] 112% | viability, T/C [15] 87.5% | viability, T/C [16] 75.7% | viability, T/C [17] 106% | viability, T/C [18] 66.1% | viability, T/C [19] 79.4% | viability, T/C [20] 73.9% | viability, T/C [21] 104% | viability, T/C [22] 60.4% | viability, T/C [23] 106% | viability, T/C [24] 58.5% | viability, T/C [25] 86.5% | viability, T/C [26] 80% | viability, T/C [27] 79.7% | viability, T/C [28] 52.6% | viability, T/C [29] 76.7% | viability, T/C [30] 80.3% | viability, T/C [31] 78.3% | viability, T/C [32] 83.2% | viability, T/C [33] 76.3% | viability, T/C [34] 63.5% | viability, T/C [35] 52.3% | viability, T/C [36] 65.6%
> 10000 nM: IC50 (second compound 0.0316 µM) | IC50 (second compound 0.1 µM) | IC50 (second compound 0.316 µM) | IC50 (second compound 1 µM) | IC50 (second compound 3.16 µM) | IC50 (second compound 10 µM)

CC(C)(O)C1CCC(Nc2ccc3ncc(-c4cccc(C(F)(F)F)c4)n3n2)CC1 (stereo unspecified) + Cc1[nH]c2ccc(F)cc2c1-c1nc2c3cccnc3c3ncccc3c2[nH]1
1810 nM: IC50 (second compound 1 µM)
active: viability, T/C [23] 7.25% | viability, T/C [24] 9.88% | viability, T/C [29] 2.95% | viability, T/C [30] 4.04% | viability, T/C [35] 6.15% | viability, T/C [36] 7.1%
inactive: viability, T/C [1] 87.7% | viability, T/C [2] 99.6% | viability, T/C [3] 104% | viability, T/C [4] 98.5% | viability, T/C [5] 16.1% | viability, T/C [6] 52.3% | viability, T/C [7] 101% | viability, T/C [8] 82.5% | viability, T/C [9] 97.5% | viability, T/C [10] 120% | viability, T/C [11] 26.7% | viability, T/C [12] 26.9% | viability, T/C [13] 68.2% | viability, T/C [14] 84.2% | viability, T/C [15] 89.3% | viability, T/C [16] 131% | viability, T/C [17] 14.9% | viability, T/C [18] 24.8% | viability, T/C [19] 88% | viability, T/C [20] 89.3% | viability, T/C [21] 99.9% | viability, T/C [22] 100% | viability, T/C [25] 97.7% | viability, T/C [26] 84% | viability, T/C [27] 71.5% | viability, T/C [28] 122% | viability, T/C [31] 87.5% | viability, T/C [32] 63% | viability, T/C [33] 80.3% | viability, T/C [34] 102%
1750 nM: IC50 (second compound 3.16 µM)
2370 nM: IC50 (second compound 0.0316 µM)
1970 nM: IC50 (second compound 0.316 µM)
1650 nM: IC50 (second compound 10 µM)
2200 nM: IC50 (second compound 0.1 µM)

COc1ncnc(C2CC2)c1-c1ncc2cnn(Cc3ccc(-c4nc(C(F)(F)F)cn4C(C)C)cc3)c2n1 + Cc1cnc(CNC(=O)c2c(=O)c3ccc(N4CCCN(C)CC4)nc3n3c2sc2ccccc23)cn1
> 10000 nM: IC50 (second compound 0.0316 µM) | IC50 (second compound 0.1 µM)
8600 nM: IC50 (second compound 0.316 µM)
< 31.6 nM: IC50 (second compound 3.16 µM) | IC50 (second compound 10 µM)
inactive: viability, T/C [1] 87.7% | viability, T/C [2] 65.6% | viability, T/C [3] 88.7% | viability, T/C [4] 79.3% | viability, T/C [5] 90.6% | viability, T/C [6] 67.6% | viability, T/C [7] 85.6% | viability, T/C [8] 74.8% | viability, T/C [9] 97.7% | viability, T/C [10] 77.9% | viability, T/C [11] 97.2% | viability, T/C [12] 54% | viability, T/C [13] 72.4% | viability, T/C [14] 54.8% | viability, T/C [15] 64.1% | viability, T/C [16] 67.5% | viability, T/C [17] 45.5% | viability, T/C [18] 50.4% | viability, T/C [19] 55.7% | viability, T/C [20] 54.1% | viability, T/C [21] 47.6% | viability, T/C [22] 47.8% | viability, T/C [23] 49.1% | viability, T/C [24] 53.3% | viability, T/C [25] 49.2% | viability, T/C [26] 40.1% | viability, T/C [27] 46% | viability, T/C [28] 30.3% | viability, T/C [29] 63.7% | viability, T/C [30] 48.6% | viability, T/C [31] 35.8% | viability, T/C [32] 55.3% | viability, T/C [33] 48.5% | viability, T/C [34] 26.8% | viability, T/C [35] 47.6% | viability, T/C [36] 90.8%
809 nM: IC50 (second compound 1 µM)
